For test [1], the target named is T1, Replicative DNA helicase DnaB (Mycobacterium tuberculosis, UniProt P9WMR3).
T1 sequence (P9WMR3 whole entry): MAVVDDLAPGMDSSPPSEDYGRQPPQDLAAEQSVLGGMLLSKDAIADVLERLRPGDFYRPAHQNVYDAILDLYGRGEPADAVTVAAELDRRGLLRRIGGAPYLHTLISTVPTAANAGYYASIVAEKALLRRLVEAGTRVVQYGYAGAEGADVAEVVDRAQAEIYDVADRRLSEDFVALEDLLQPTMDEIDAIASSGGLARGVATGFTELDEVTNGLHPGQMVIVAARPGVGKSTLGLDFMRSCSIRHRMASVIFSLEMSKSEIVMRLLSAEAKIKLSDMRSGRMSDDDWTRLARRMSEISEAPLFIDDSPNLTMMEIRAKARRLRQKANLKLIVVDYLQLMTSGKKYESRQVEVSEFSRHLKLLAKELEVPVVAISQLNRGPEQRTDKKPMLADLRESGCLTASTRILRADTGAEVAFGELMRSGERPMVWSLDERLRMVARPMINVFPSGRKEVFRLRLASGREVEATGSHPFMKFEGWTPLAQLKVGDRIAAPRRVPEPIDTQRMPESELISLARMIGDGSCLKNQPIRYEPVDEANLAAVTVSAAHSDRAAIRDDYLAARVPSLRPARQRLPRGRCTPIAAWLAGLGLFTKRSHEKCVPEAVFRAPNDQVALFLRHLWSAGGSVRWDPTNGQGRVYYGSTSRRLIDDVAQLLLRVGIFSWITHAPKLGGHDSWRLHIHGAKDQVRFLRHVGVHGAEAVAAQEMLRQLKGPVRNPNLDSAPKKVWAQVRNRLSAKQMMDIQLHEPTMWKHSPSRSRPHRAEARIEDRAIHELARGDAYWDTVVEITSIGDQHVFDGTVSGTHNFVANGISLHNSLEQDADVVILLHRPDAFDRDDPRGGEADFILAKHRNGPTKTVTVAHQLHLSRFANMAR
The test can be described thus: DnaB intein splicing inhibitors, dose response, biochemical, cell-free fluorescence (AID 449749). Format: functional.

In the next test the target is T2, Protein RecA (Mycobacterium tuberculosis, UniProt P9WHJ3).
T2 sequence (P9WHJ3 whole entry): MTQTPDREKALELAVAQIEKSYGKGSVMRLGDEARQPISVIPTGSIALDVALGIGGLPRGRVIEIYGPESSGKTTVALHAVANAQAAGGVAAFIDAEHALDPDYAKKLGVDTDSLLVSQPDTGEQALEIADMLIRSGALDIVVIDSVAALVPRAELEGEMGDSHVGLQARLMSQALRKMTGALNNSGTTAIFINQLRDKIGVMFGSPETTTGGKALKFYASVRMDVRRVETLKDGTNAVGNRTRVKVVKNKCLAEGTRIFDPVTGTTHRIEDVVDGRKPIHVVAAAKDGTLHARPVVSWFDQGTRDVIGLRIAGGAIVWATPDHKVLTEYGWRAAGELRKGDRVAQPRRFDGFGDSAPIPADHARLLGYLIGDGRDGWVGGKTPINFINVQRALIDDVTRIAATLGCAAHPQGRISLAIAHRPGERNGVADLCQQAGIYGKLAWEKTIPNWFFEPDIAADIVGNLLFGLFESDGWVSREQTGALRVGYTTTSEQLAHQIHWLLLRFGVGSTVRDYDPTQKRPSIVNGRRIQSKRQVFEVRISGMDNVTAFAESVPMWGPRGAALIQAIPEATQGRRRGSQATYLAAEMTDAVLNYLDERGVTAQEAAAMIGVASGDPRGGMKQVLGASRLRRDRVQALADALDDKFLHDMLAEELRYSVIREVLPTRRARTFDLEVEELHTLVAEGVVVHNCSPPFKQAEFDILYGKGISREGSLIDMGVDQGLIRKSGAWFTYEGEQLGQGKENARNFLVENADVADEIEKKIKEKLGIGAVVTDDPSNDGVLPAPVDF
The test can be described thus: Fluorescence Cell-Free Homogeneous Dose Retest to Identify Inhibitors of RecA-Intein Splicing Activity. [Related pubchem assays (depositor defined):AID2097, AID2223, AID489010, AID492950]. Format: functional.

A further test has as its target Paired box protein Pax-8 (Homo sapiens, UniProt Q06710). The test can be described thus: inhibitors of PAX8-driven TPO luciferase reporter, dose response, RMG-I cells, cherry-pick (AID 687027).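 Also: luciferase reporter driven by Pax8 target thyroperoxidase promoter measured by SteadyGlo luminescence.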 The class given is functional, cell-based. In general terms: A reporter such as luciferase makes a cellular process visible.
The nature of test [2]: PAX2 cell-based inhibition, dose response, selectivity assay for PAX8 inhibitor project, plate reader, dry powder samples (AID 743048).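 Also: HEK293 cells carrying a WT1 promoter luciferase reporter driven by expressed Pax2; potency is for inhibition of Pax2 driven reporter signal.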 Format: functional.
The nature of test [3]: IOSE-T80 ovarian epithelial cell cytotoxicity, dose response, cytotoxicity control for PAX8 inhibitor project, plate reader, dry powder samples (AID 743045). The class given is functional, cell-based.
The nature of test [4]: NIH:OVCAR-3 ovarian cancer cell cytotoxicity, dose response, PAX8 inhibitor project, plate reader, dry powder samples (AID 743044). Format: functional, cell-based.
Test [5] can be described thus: cytotoxicity in COV434 cells, dose response, cytotoxicity control for PAX8 inhibitor project, cell-based, plate reader, dry powder, SA7 (AID 743145). The class given is functional.
Test [6] can be described thus: cytotoxicity dependent on PAX8, dose response, cell-based, plate reader, dry powder (AID 743049). Format: functional.
For a further test, the target named is T3, Protein skinhead-1 (Caenorhabditis elegans, UniProt P34707).
T3 sequence (P34707 whole entry): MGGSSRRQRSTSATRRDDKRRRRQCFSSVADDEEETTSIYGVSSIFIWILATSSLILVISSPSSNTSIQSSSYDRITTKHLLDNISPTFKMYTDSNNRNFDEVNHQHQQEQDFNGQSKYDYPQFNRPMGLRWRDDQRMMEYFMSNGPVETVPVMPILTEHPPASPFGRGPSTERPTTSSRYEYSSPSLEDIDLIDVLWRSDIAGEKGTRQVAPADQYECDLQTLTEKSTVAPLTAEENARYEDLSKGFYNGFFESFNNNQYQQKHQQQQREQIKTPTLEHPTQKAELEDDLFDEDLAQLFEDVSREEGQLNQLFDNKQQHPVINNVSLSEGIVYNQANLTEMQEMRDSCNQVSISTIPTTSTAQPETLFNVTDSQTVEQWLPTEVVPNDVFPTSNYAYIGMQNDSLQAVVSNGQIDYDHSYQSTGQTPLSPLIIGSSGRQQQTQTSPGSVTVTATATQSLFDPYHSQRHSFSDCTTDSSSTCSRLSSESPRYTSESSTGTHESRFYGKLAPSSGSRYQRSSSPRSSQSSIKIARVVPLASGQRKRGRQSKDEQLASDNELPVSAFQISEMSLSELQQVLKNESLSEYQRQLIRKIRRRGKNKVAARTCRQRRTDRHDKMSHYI
Format: functional.

The nature of test [7]: Luminescence-based cell-based high throughput dose response assay to identify activators of the DAF-12 from the parasite S. stercoralis (ssDAF-12). Format: functional.
The target of test [8] is T4, Oxysterols receptor LXR-beta (Homo sapiens, UniProt P55055).
T4 sequence (P55055 whole entry): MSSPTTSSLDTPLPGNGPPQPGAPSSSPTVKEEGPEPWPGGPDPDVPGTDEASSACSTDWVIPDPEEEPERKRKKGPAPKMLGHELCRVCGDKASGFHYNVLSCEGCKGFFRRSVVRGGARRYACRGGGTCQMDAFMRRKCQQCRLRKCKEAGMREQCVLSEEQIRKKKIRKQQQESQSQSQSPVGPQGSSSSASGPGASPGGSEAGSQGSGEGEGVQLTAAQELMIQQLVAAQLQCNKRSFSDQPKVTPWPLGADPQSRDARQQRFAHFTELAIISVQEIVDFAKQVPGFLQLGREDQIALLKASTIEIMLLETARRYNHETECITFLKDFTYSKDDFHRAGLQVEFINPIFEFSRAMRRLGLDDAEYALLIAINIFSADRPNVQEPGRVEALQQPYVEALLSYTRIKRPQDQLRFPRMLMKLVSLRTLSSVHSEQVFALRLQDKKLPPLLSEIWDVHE
The test can be described thus: LXR agonists, Gal4 luciferase reporter, dose response, counter-screen for ssDAF-12 agonist project, cell-based, luminescence, HEK293, S. stercoralis campaign (AID 720737). Format: functional. Conditions: read-out: IC50 (the source's name).

Test [9] is described as follows: inhibitors of firefly luciferase expression or activity, dose response, H4 neuroglioma cells, luminescence (AID 1990). Format: functional, cell-based.
Test [10] has as its system Streptococcus sp. 'group A'. The test can be described thus: growth inhibition of control SK(-) GAS strain, dose response, counter-screen for streptokinase expression inhibitor project, luminescence, kanamycin, BacTiterGlo, confirmation (AID 1900). The class given is functional, organism-based. Background: A counterscreen serves to expose hits that act by an unwanted route or on another target.

Test [11] in a line: Luminescence Cell-Based Dose Response HTS to Identify Inhibitors of 5'UTR Stem-Loop Driven Prion Protein mRNA Translation in H4 Neuroglioblastoma Cells. [Related pubchem assays: 1827 (Project Summary), 1813 (Primary HTS)]. The class given is functional.
Test [12] in a line: inhibitors of SNCA 5'UTR-driven reporter translation, confirmation, H4 neuroglioma cells, luminescence (AID 1988). The class given is functional, cell-based.
A further test concerns Streptococcus. The test can be described thus: Group A Streptococcus viability loss, dose response, counter-screen for streptokinase expression inhibitor project, luminescence, BacTiterGlo (AID 1915).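 Also: potency for reduction of bacterial viability or growth.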 The class given is functional, organism-based.
Test [13] can be described thus: Luminescence Cell-Based Dose Retest to Confirm Inhibitors of Cancer Stem Cells. [Related pubchem assays (depositor defined):AID2717, AID2721]. The class given is functional. The conditions noted are these: Homo sapiens.
The target in another test is Cytochrome P450 2C19 (Homo sapiens, UniProt P33261). The test can be described thus: Cytochrome panel assay with activity outcomes. Panel member name: p450-cyp2c19 Compounds with AC50 equal or less than 10 uM are considered active. Format: functional. Conditions: read-out: AC50.
Chain of Cytochrome P450 2C19 (P33261 whole entry): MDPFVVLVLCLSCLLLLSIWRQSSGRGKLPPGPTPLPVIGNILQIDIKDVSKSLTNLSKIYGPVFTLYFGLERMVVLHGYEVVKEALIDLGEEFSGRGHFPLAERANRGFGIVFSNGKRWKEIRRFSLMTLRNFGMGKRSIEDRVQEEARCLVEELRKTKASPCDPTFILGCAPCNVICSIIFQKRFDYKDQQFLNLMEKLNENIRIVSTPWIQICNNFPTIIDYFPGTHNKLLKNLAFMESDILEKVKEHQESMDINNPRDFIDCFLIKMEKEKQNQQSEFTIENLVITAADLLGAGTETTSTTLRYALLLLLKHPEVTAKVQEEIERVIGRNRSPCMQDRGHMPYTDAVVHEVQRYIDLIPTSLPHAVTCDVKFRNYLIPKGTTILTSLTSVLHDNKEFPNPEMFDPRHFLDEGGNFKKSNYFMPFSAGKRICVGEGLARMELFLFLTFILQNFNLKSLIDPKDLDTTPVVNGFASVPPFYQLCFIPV
Test [14] in a line: Artemis endonuclease inhibitor potency, dose response, biochemical, fluorescence intensity (AID 720701).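 Also: Artemis endonuclease enzyme.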 Format: functional.
For the next test, the target named is Cytochrome P450 2D6 (Homo sapiens, UniProt P10635).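 Also: CYP2D6 member of a cytochrome P450 panel assay.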
Chain of Cytochrome P450 2D6 (P10635 whole entry): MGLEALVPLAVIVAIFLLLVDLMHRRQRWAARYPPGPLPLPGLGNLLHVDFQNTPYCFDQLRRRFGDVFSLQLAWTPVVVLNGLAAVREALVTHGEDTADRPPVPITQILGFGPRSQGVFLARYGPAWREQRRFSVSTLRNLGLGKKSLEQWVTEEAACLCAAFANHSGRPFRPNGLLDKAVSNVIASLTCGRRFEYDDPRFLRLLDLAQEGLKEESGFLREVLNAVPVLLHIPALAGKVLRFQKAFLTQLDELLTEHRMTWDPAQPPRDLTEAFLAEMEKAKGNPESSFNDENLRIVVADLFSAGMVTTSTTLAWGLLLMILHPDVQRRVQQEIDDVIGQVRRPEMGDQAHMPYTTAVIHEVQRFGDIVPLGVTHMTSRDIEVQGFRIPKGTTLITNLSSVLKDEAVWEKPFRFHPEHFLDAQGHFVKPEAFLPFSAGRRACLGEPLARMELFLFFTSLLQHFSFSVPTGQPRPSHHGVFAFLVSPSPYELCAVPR
For test [15], the target named is RNA-editing ligase 1, mitochondrial (Trypanosoma brucei brucei, UniProt P86926). The experiment in a line: TbREL1 ligase inhibitors, dose response, biochemical, fluorescence, Trypanosoma brucei (AID 1117295). The class given is functional.
Chain of RNA-editing ligase 1, mitochondrial (P86926 whole entry): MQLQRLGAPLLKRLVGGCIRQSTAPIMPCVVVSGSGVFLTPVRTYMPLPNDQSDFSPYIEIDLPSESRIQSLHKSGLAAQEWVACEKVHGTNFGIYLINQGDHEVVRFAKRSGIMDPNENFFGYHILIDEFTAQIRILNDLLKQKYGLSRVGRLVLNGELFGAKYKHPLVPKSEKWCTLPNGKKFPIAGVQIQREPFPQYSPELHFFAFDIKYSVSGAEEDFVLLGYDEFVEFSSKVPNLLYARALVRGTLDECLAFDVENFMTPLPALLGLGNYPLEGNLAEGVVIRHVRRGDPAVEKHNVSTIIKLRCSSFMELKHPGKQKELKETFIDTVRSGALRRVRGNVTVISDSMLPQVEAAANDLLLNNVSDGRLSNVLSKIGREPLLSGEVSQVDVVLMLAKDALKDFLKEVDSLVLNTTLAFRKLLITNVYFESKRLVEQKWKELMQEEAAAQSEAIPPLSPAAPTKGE

SMILES strings stand for the structures. Active and inactive are the calls of the source.

Chain of Paired box protein Pax-8 (Q06710 whole entry): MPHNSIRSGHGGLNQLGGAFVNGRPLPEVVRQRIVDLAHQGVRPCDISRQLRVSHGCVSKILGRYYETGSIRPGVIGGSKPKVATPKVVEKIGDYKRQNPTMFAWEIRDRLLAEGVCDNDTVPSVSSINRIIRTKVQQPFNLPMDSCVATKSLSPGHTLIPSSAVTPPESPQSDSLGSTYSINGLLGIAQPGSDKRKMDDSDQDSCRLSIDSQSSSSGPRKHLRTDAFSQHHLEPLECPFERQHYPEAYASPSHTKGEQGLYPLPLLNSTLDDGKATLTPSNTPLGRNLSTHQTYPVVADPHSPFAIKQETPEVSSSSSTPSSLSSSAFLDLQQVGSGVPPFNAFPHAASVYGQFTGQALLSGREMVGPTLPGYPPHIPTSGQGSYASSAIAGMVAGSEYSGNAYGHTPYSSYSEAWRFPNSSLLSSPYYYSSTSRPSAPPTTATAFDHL

Consider `O=C1/C(=C/c2ccccc2F)SC(=S)N1CC(=O)N1CCCCC1c1cccnc1` (stereo unspecified), for which the AC50 (commonly the concentration at which the activity in the assay is half-maximal) in [1] is 17.9 µM (active); on Paired box protein Pax-8, 5.04 µM (active); in [2] it was > 100 µM (inactive); in test [3], 43.5 µM (active); in test [4], 26.3 µM (active); in [5] it was 38.3 µM (active). For the same molecule, the AC50 in [6] was 44.9 µM (active). Further, the EC50 at Protein RecA was 18.6 µM (active).
Regarding `Fc1ccc(-c2csc(Nc3ccccn3)n2)cc1`, the results for the half-maximal inhibitory concentration (IC50) (at Protein skinhead-1; in [7]) were 22.8 µM (active) and > 67.6 µM (inactive), respectively. The EC50 in test [8] is > 67.6 µM (inactive).
For the molecule `Nc1nn2c(O)cc(-c3ccccc3)nc2c1N=Nc1ccccc1`, the EC50 in test [9] is > 60 µM (not active); in test [10], 1.67 µM (active); in test [11], 12.7 µM (active); in test [12], 10.5 µM (active); in the test on Streptococcus, 4.43 µM (active). Besides, the concentration at half-maximal activity (AC50) in test [13] was 1.62 µM (active); on Cytochrome P450 2C19, 28.2 µM (inconclusive); on Cytochrome P450 2D6, 28.2 µM (inconclusive). For the same molecule, the IC50 (in general, the midpoint of a concentration-inhibition curve) in test [14] is 19.9 µM (active).
`C=CCNCCOCCOc1ccc(Cl)cc1C(C)(C)C`: the IC50 in test [15] was > 96.6 µM (inactive).

These data come from ChEMBL document CHEMBL1201862, “PubChem BioAssay data set” (2004).
